This note sets out measurements from US8877763B2, “Substituted pyridopyrimidine compounds and their use as FLT3 inhibitors” (Genosco, priority 2012, dated 2014).

Assay [1] concerns the target T1, Truncated human FLT3 wildtype (Homo sapiens, UniProt P36888).
T1 construct: Truncated human FLT3 wildtype; purchased Carna Biosciences
T1 sequence (P36888 564-993 limits assumed): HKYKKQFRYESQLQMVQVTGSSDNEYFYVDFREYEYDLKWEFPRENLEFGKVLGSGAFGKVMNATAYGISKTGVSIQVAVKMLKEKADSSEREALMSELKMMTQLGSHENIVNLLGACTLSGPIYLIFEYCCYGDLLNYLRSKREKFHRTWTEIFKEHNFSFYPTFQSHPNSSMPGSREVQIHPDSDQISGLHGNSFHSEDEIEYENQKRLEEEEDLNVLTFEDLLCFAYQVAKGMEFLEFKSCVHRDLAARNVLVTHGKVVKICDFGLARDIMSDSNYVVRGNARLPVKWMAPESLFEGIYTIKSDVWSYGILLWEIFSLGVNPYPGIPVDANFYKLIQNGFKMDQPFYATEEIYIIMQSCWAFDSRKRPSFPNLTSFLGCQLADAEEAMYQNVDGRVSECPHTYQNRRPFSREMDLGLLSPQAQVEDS
The assay can be described thus: Inhibition of enzymatic FLT3 wildtype kinase activity (Lance Ulight TR-FRET). The assay is classed as biochemical. As for the experimental part: (§1) Compounds of the invention were initially diluted to 10 mM in 100% DMSO (CALBIOCHEM™) for storage and made into kinase buffer solution to create a compound concentration ranging from 1 uM and 10 uM. Serial dilutions of compounds of the invention were dispensed into a 96-well plate (GREINER BIOSCIENCES™) at 6 μL each.
For orientation: In TR-FRET formats the signal depends on donor and acceptor labels being close together.

For a further assay, the target named is T2, FLT3 mutant D835Y (Homo sapiens, UniProt P36888, D835Y).
T2 construct: Truncated human FLT3 wildtype, mutant D835Y; purchased Carna Biosciences
T2 sequence (P36888 564-993 D835Y limits assumed): T1 sequence (P36888 564-993 limits assumed) with D272Y
The assay can be described thus: Inhibition of enzymatic FLT3 mutant D835Y kinase activity (Lance Ulight TR-FRET). The assay is classed as biochemical. How it is done:
as §1

The target in another assay is T3, JAK2 (Homo sapiens, UniProt O60674).
T3 construct: Truncated human FLT3 wildtype, mutant D835Y, and JAK2; purchased Carna Biosciences
The assay can be described thus: Inhibition of enzymatic JAK2 kinase activity (Lance Ulight TR-FRET). The format is biochemical. How it is done:
as §1

For assay [2], the system named is MV4-11 cells expressing human FLT3-ITD. The assay can be described thus: Cell viability assay: inhibition of FLT3-ITD-positive cells (ATPLite). The assay is classed as cell-based. Particulars: 72 hour incubation. How it is done:
Compounds of the invention were tested for cell viability effect on MV4-11 cells. For cell viability assay, MV4-11 cells expressing human FLT3-ITD were obtained from the American Type Culture Collection (ATCC, Manassas, Va.). This cell line was maintained with an Roswell Park Memorial Institute (RPMI) medium (HyClone™) containing 10 bovine calf serum (BCS; Hyclone™) supplemented iron. The MV4-11 cells were seeded at 2×10^4 cells in 96-well culture plates, and serially diluted compound was then added. After a 72 hour incubation period at 37° C., cell viability was measured using the ATPLite 1 step assay (Perkin-Elmer™) that is based on the quantification of ATP from viable cells. CellTiter Aqueous assay (Promega™) was also performed in parallel as an orthogonal assay. IC50 values were calculated using nonlinear regression and defined as the concentration needed for a 50 reduction in luminescence or absorbance treated versus untreated control cells (Prism™ Software).
In general terms: In ATP-based viability assays light output follows the ATP content of the culture.

The test system of assay [3] is MV4-11 cell line of FLT3-ITD. Put plainly: Xenograft mouse model using MV4-11 cell line. Particulars: for Means of Tumor Volume / Percent Tumor Regression (PTR %): 30 mg/kg every day. The assay is classed as in vivo, Balb/C nude mice. As for the experimental part: Compounds of the invention were tested in xenograft mouse model using MV4-11 cell line of FLT3-ITD. All male animals of 6 weeks old Balb/C nude mice were housed in plastic cages (4˜6 mice/cage) containing corn cob and maintained in a pathogen-free facility (20˜25° C., 30˜70% humidity) with a 12 hour light:dark cycle. Tumor model was established by subcutaneous injection with MV4-11 cell suspension. When the average tumor volume reached approximately 400 mm^3 (˜5 weeks post tumor implantation), the tumor bearing-mice were assigned 2 groups (9 mice per each). The compound 238 treatment of 30 mg/kg every day was initiated and continue for 28 days. The vehicle 20% hydroxyl-β-cyclodextrin was used. Tumor volume was measured twice weekly. Where applicable, percent tumor regression (PTR) for each group will be calculated by the formula: PTR=100×(tumor volumeinitial−tumor volumefinal)/(tumor volumeinitial).

Each structure is given as a SMILES string. Numbering of substitutions follows the chain as printed. Structures can show the parent of a compound that is named as a salt.

T3 sequence (O60674 826-1132 limits assumed): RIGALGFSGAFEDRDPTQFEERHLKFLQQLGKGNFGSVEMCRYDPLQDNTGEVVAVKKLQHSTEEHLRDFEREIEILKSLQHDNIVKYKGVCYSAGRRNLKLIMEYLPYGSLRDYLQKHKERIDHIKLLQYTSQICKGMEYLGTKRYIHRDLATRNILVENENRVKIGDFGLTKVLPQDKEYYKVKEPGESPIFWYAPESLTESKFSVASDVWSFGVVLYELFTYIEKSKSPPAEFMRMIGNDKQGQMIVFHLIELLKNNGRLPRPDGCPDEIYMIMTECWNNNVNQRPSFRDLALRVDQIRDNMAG

The term IC50 denotes the midpoint of a concentration-inhibition curve. In the case of `CN1CCC(Nc2nc(Nc3ccc(OCc4ccccc4)cc3)c3c(=O)[nH]cc(Br)c3n2)CC1` [Compound 221, 4-((4-(benzyloxy)phenyl)amino)-8-bromo-2-((1-methylpiperidin-4-yl)amino)pyrido[4,3-d]pyrimidin-5(6H)-one], the 50% inhibitory concentration (IC50) in assay [1] came out at 0.1 nM; on FLT3 mutant D835Y it was 0.4 nM; on JAK2 it was 290 nM; in assay [2] (Homo sapiens, MV4-11, 72 h), 2.4 nM.

`CN1CCC(Nc2nc(Nc3ccc(OC4CCCC4)cc3)c3c(=O)[nH]cc(Br)c3n2)CC1` [Compound 223, 8-bromo-4-((4-(cyclopentyloxy)phenyl)amino)-2-((1-methylpiperidin-4-yl)amino)pyrido[4,3-d]pyrimidin-5(6H)-one]: the concentration for half-maximal inhibition (IC50) was found to be 0.6 nM in assay [1], 0.3 nM against FLT3 mutant D835Y and 153 nM at JAK2.

As for `Cc1ccc(Oc2ccc(Nc3nc(NC4CCN(C)CC4)nc4c(Br)c[nH]c(=O)c34)cc2)cc1` [Compound 225, 8-bromo-2-((1-methylpiperidin-4-yl)amino)-4-((4-(p-tolyloxy)phenyl)amino)pyrido[4,3-d]pyrimidin-5(6H)-one], the concentration for half-maximal inhibition (IC50) in assay [1] was found to be 0.3 nM; on FLT3 mutant D835Y it was 1.6 nM; against JAK2, 1520 nM.

Turning to `CN1CCC(Nc2nc(Nc3ccc(Oc4ccccc4)cc3)c3c(=O)[nH]cc(Br)c3n2)CC1` [Compound 226, 8-Bromo-2-(1-methylpiperidin-4-ylamino)-4-(4-phenoxyphenylamino)pyrido[4,3-d]pyrimidin-5(6H)-one hydrochloride], the IC50 against JAK2 turned out to be 281 nM.

On to `CN1CCC(Nc2nc(Nc3ccc(OC4CCCCC4)cc3)c3c(=O)[nH]cc(Br)c3n2)CC1` [Compound 228, 8-bromo-4-((4-(cyclohexyloxy)phenyl)amino)-2-((1-methylpiperidin-4-yl)amino)pyrido[4,3-d]pyrimidin-5(6H)-one], for which the half-inhibitory concentration (IC50) in assay [1] is 0.1 nM; at FLT3 mutant D835Y, 0.6 nM; at JAK2, 129 nM; in assay [2], 0.8 nM.

For `CN1CCC(Nc2nc(Nc3ccc(OC4CCCCC4)cc3)c3c(=O)[nH]cc(Br)c3n2)CC1` [Compound 233, 8-bromo-4-((4-(cyclohexyloxy)phenyl)amino)-2-((1-methylpiperidin-4-yl)amino) pyrido[4,3-d]pyrimidin-5(6H)-one hydrochloride], the IC50 against FLT3 mutant D835Y was found to be 0.3 nM; against JAK2 it was 173 nM; in assay [2] (Homo sapiens, MV4-11, 72 h) it was 1.4 nM.

On to `CN1CCC(Nc2nc(Nc3ccc(OCC4CCCC4)cc3)c3c(=O)[nH]cc(Br)c3n2)CC1` [Compound 235, 8-bromo-4-((4-(cyclopentylmethoxy)phenyl)amino)-2-((1-methylpiperidin-4-yl)amino)pyrido[4,3-d]pyrimidin-5(6H)-one], for which 1.6 nM corresponded to half-maximal inhibition in assay [2] (Homo sapiens, MV4-11, 72 h) (IC50). In other words, the single-digit nanomolar range.

As to `CN1CCC(Nc2nc(Nc3ccc(OC4CCCC4)cc3)c3c(=O)[nH]cc(Br)c3n2)CC1` [Compound 237, 8-bromo-4-(4-(cyclopentyloxy)phenylamino)-2-(1-methylpiperidin-4-ylamino)pyrido[4,3-d]pyrimidin-5(6H)-one hydrochloride], in assay [2] (Homo sapiens, MV4-11, 72 h), the half-maximal inhibitory concentration (IC50) worked out at 0.5 nM.

As for `CN1CCC(Nc2nc(Nc3ccc(Oc4cccc(F)c4)cc3)c3c(=O)[nH]cc(Br)c3n2)CC1.Cl` [Compound 238, 8-bromo-4-(4-(3-fluorophenoxy)phenylamino)-2-(1-methylpiperidin-4-ylamino)pyrido[4,3-d]pyrimidin-5(6H)-one hydrochloride], the half-maximal inhibitory concentration (IC50) turned out to be 1.4 nM in assay [1], 0.4 nM on FLT3 mutant D835Y, 845 nM against JAK2 and 1.9 nM in assay [2] (hydrochloride). The “inhibition of kinase activity of FLT3 wildtype (in words)” value in assay [1] is listed as “strong inhibition”. On FLT3 mutant D835Y, the “inhibition of kinase activity of FLT3 mutant D835Y (in words)” value was “strong inhibition”. For the same molecule, the “Means of Tumor Volume” value is listed as 312.8 mm^3 in assay [3] (day of treatment 1); 79.4 mm^3 in assay [3] (day of treatment 4); 27.6 mm^3 in assay [3] (day of treatment 7); 0 mm^3 in assay [3] (day of treatment 11); 0 mm^3 in assay [3] (day of treatment 14); 0 mm^3 in assay [3] (day of treatment 17). Besides, the “Means of Tumor Volume” value in assay [3] (day of treatment 21), in assay [3] (day of treatment 25) and in assay [3] (day of treatment 28) was 0 mm^3 each time. For the same molecule, the “Percent Tumor Regression (PTR %)” value is 74.6% in assay [3] (day of treatment 4); 91.2% in assay [3] (day of treatment 7); 100% in assay [3] (day of treatment 11); 100% in assay [3] (day of treatment 14); 100% in assay [3] (day of treatment 17); 100% in assay [3] (day of treatment 21). The “Percent Tumor Regression (PTR %)” value in assay [3] (day of treatment 25) and in assay [3] (day of treatment 28) was 100% each time. For the same molecule, the “tumor regression (in words)” value in assay [3] (after 11 days of compound treatment) is on record as “complete tumor regression”.

With `CN1CCC(Nc2nc(Nc3ccc(Oc4cccc(F)c4)cc3)c3c(=O)[nH]cc(Br)c3n2)CC1` [Compound 240, 8-bromo-4-((4-(3-fluorophenoxy)phenyl)amino)-2-((1-methylpiperidin-4-yl)amino) pyrido[4,3-d]pyrimidin-5(6H)-one], the IC50 in assay [1] was determined as 1.2 nM; against FLT3 mutant D835Y it was 1.3 nM; against JAK2, 599 nM; in assay [2], 0.5 nM.

With `CN1CCC(Nc2nc(Nc3ccc(Oc4ccc(F)c(F)c4)cc3)c3c(=O)[nH]cc(Br)c3n2)CC1` [Compound 241, 8-bromo-4-((4-(3,4-difluorophenoxy)phenyl)amino)-2-((1-methylpiperidin-4-yl)amino)pyrido[4,3-d]pyrimidin-5(6H)-one hydrochloride], the IC50 worked out at 1.6 nM in assay [1]; 0.6 nM against FLT3 mutant D835Y; 1050 nM on JAK2; 0.9 nM in assay [2] (Homo sapiens, MV4-11, 72 h).

In the case of `CN1CCC(Nc2nc(Nc3cccc(Oc4ccccc4)c3)c3c(=O)[nH]cc(Br)c3n2)CC1` [Compound 246, 8-bromo-2-((1-methylpiperidin-4-yl)amino)-4-((3-phenoxyphenyl)amino)pyrido[4,3-d]pyrimidin-5(6H)-one], the half-maximal inhibitory concentration (IC50) stood at 0.1 nM in assay [1]; 1.7 nM at FLT3 mutant D835Y; 260 nM against JAK2; 1.4 nM in assay [2] (Homo sapiens, MV4-11, 72 h).
